ChEMBL document CHEMBL3992552, “Mechanisms of action and structure-activity relationships of cytotoxic flavokawain derivatives” (Bioorg Med Chem, 2017)
Activity calls are given as the source filed them. The calls are words filed in the database; no cut-off is given here.

Assays:
Huh-7 [1] = assay: Cytotoxicity against human HuH7 cells assessed as cell survival at 50 uM after 48 hrs by Hoechst 33342 staining based assay relative to control; assay type: functional; details: Huh-7, 48 h, read-out: Survival
Caco-2 [2] = assay: Cytotoxicity against human Caco2 cells assessed as cell survival at 50 uM after 48 hrs by Hoechst 33342 staining based assay relative to control; assay type: functional; details: Caco-2, 48 h, read-out: Survival
MDA-MB-231 [3] = assay: Cytotoxicity against human MDA-MB-231 cells assessed as cell survival at 50 uM after 48 hrs by Hoechst 33342 staining based assay relative to control; assay type: functional; details: MDA-MB-231, 48 h, read-out: Survival
NCI-H727 [4] = assay: Cytotoxicity against human NCI-H727 cells assessed as cell survival at 50 uM after 48 hrs by Hoechst 33342 staining based assay relative to control; assay type: functional; details: NCI-H727, 48 h, read-out: Survival
Huh-7 [5] = assay: Cytotoxicity against human HuH7 cells assessed as cell viability after 48 hrs by Hoechst 33342 staining based assay; assay type: functional; details: Huh-7, 48 h
Caco-2 [6] = assay: Cytotoxicity against human Caco2 cells assessed as cell viability after 48 hrs by Hoechst 33342 staining based assay; assay type: functional; details: Caco-2, 48 h
MDA-MB-231 [7] = assay: Cytotoxicity against human MDA-MB-231 cells assessed as cell viability after 48 hrs by Hoechst 33342 staining based assay; assay type: functional; details: MDA-MB-231, 48 h
HCT-116 [8] = assay: Cytotoxicity against human HCT116 cells assessed as cell viability after 48 hrs by Hoechst 33342 staining based assay; assay type: functional; details: HCT-116, 48 h
PC-3 [9] = assay: Cytotoxicity against human PC3 cells assessed as cell viability after 48 hrs by Hoechst 33342 staining based assay; assay type: functional; details: PC-3, 48 h
NCI-H727 [10] = assay: Cytotoxicity against human NCI-H727 cells assessed as cell viability after 48 hrs by Hoechst 33342 staining based assay; assay type: functional; details: NCI-H727, 48 h
HaCaT [11] = assay: Cytotoxicity against human HaCaT cells assessed as cell viability after 48 hrs by Hoechst 33342 staining based assay; assay type: functional
[12] = Selectivity index, ratio of IC50 for human fibroblasts to IC50 for human HuH7 cells
[13] = Selectivity index, ratio of IC50 for human fibroblasts to IC50 for human Caco2 cells
[14] = Selectivity index, ratio of IC50 for human fibroblasts to IC50 for human NCI-H727 cells
[15] = Selectivity index, ratio of IC50 for human fibroblasts to IC50 for human MCF7 cells
HCT-116 [16] = assay: Induction of apoptosis in human HCT116 cells harboring wild-type p53 assessed as increase in early apoptosis at 2 times IC50 after 48 hrs by YoPro/propidium iodide/Hoechst staining based assay; assay type: functional, cell-based
PC-3 [17] = assay: Induction of apoptosis in human PC3 cells harboring p53 mutant assessed as increase in early apoptosis at 2 times IC50 after 48 hrs by YoPro/propidium iodide/Hoechst staining based assay; assay type: functional, cell-based
MDA-MB-231 [18] = assay: Induction of apoptosis in human MDA-MB-231 cells harboring p53 mutant assessed as increase in late apoptosis at 2 times IC50 after 24 hrs by YoPro/propidium iodide/Hoechst staining based assay; assay type: functional, cell-based
MCF7 [19] = assay: Induction of apoptosis in human MCF7 cells harboring wild-type p53 assessed as increase in late apoptosis at 2 times IC50 after 24 hrs by YoPro/propidium iodide/Hoechst staining based assay; assay type: functional, cell-based
PC-3 [20] = assay: Induction of apoptosis in human PC3 cells harboring p53 mutant assessed as increase in cleaved caspase3 at 2 times IC50 after 48 hrs by Hoechst staining based assay; assay type: functional, cell-based
MDA-MB-231 [21] = assay: Induction of apoptosis in human MDA-MB-231 cells harboring p53 mutant assessed as increase in cleaved caspase3 at 2 times IC50 after 24 hrs by Hoechst staining based assay; assay type: functional, cell-based
Huh-7 [22] = assay: Cell cycle arrest in human HuH7 cells assessed as mitotic index at 10 uM measured after 48 hrs by Hoechst staining based fluorescence assay (reference value: 2.2); assay type: functional
Huh-7 [23] = assay: Cell cycle arrest in human HuH7 cells assessed as accumulation at S phase at 10 uM measured after 48 hrs by Hoechst/BrdU staining based fluorescence assay (reference value: 44%); assay type: functional
Caco-2 [24] = assay: Cell cycle arrest in human Caco2 cells assessed as mitotic index at 10 uM measured after 48 hrs by Hoechst staining based fluorescence assay (reference value: 3.6); assay type: functional
HCT-116 [25] = assay: Cell cycle arrest in human HCT116 cells harboring wild-type p53 assessed as mitotic index at 10 uM measured after 48 hrs by Hoechst staining based fluorescence assay (reference value: 2.3); assay type: functional
HCT-116 [26] = assay: Cell cycle arrest in human HCT116 cells harboring wild-type p53 assessed as accumulation at S phase at 10 uM measured after 48 hrs by Hoechst/BrdU staining based fluorescence assay (reference value: 68.4%); assay type: functional
PC-3 [27] = assay: Cell cycle arrest in human PC3 cells harboring p53 mutant assessed as accumulation at S phase at 10 uM measured after 48 hrs by Hoechst/BrdU staining based fluorescence assay (reference value: 40.8%); assay type: functional
NCI-H727 [28] = assay: Cell cycle arrest in human NCI-H727 cells harboring p53 mutant assessed as mitotic index at 10 uM measured after 48 hrs by Hoechst staining based fluorescence assay (reference value: 1.1); assay type: functional
NCI-H727 [29] = assay: Cell cycle arrest in human NCI-H727 cells harboring p53 mutant assessed as accumulation at S phase at 10 uM measured after 48 hrs by Hoechst/BrdU staining based fluorescence assay (reference value: 40.3%); assay type: functional
HaCaT [30] = assay: Cell cycle arrest in human HaCaT cells harboring […] p53 assessed as accumulation at S phase at 10 uM measured after 48 hrs by Hoechst/BrdU staining based fluorescence assay (reference value: 52.3%); assay type: functional
Huh-7 [31] = assay: Cell cycle arrest in human HuH7 cells assessed as accumulation at S phase at 25 uM measured after 48 hrs by Hoechst/BrdU staining based fluorescence assay (reference value: 44%); assay type: functional
Caco-2 [32] = assay: Cell cycle arrest in human Caco2 cells assessed as accumulation at S phase at 25 uM measured after 48 hrs by Hoechst/BrdU staining based fluorescence assay (reference value: […]); assay type: functional
NCI-H727 [33] = assay: Cell cycle arrest in human NCI-H727 cells harboring p53 mutant assessed as mitotic index at 25 uM measured after 48 hrs by Hoechst staining based fluorescence assay (reference value: 1.1); assay type: functional
NCI-H727 [34] = assay: Cell cycle arrest in human NCI-H727 cells harboring p53 mutant assessed as accumulation at S phase at 25 uM measured after 48 hrs by Hoechst/BrdU staining based fluorescence assay (reference value: 40.3%); assay type: functional
MDA-MB-231 [35] = assay: Cell cycle arrest in human MDA-MB-231 cells assessed as accumulation at M phase by Hoechst staining based fluorescence assay; assay type: functional
MCF7 [36] = assay: Induction of apoptosis in human MCF7 cells harboring wild-type p53 assessed as upregulation of cyclinB1 measured after 18 hrs by Hoechst staining based assay; assay type: functional, cell-based
PC-3 [37] = assay: Induction of apoptosis in human PC3 cells harboring p53 mutant assessed as upregulation of cyclinB1 after 48 hrs by Hoechst staining based assay; assay type: functional, cell-based
HaCaT [38] = assay: Cell cycle arrest in human HaCaT cells assessed as accumulation at M phase by Hoechst staining based fluorescence assay; assay type: functional

Structure (SMILES): COc1cc(O)c(C(=O)/C=C/c2ccccc2)c(OC)c1 [FLAVOKAWAIN B]
- viability at 50 µM (Huh-7 [1]): 10%
- viability at 50 µM (Caco-2 [2]): 1%
- viability at 50 µM (MDA-MB-231 [3]): 19%
- viability at 50 µM (NCI-H727 [4]): 2%
- IC50 (Huh-7 [5]): 15.9 µM
- IC50 (Caco-2 [6]): 9.9 µM
- IC50 (MDA-MB-231 [7]): 16.3 µM
- IC50 (HCT-116 [8]): 7.5 µM
- IC50 (PC-3 [9]): 9.1 µM
- IC50 (NCI-H727 [10]): 11.3 µM
- IC50 (HaCaT [11]): 13.6 µM
- Ratio IC50 [12]: 1.7
- Ratio IC50 [13]: 2.7
- Ratio IC50 [14]: 2.3
- Ratio IC50 [15]: 1.7
- Activity (HCT-116 [16]): Active
- Activity (PC-3 [17]): Active
- Activity (MDA-MB-231 [18]): Active
- Activity (MCF7 [19]): Active
- Activity (PC-3 [20]): Active
- Activity (MDA-MB-231 [21]): Active
- Activity_index (Huh-7 [22]): 2.2
- Activity (Huh-7 [23]): 55%
- Activity_index (Caco-2 [24]): 9.7
- Activity_index (HCT-116 [25]): 1.1
- Activity (HCT-116 [26]): 37%
- Activity (PC-3 [27]): 35%
- Activity_index (NCI-H727 [28]): 0.8
- Activity (NCI-H727 [29]): 39%
- Activity (HaCaT [30]): 50%
- Activity (Huh-7 [31]): 30%
- Activity (Caco-2 [32]): 40%
- Activity_index (NCI-H727 [33]): 0.2
- Activity (NCI-H727 [34]): 7%
- Activity (MDA-MB-231 [35]): Active
- Activity (MCF7 [36]): Active
- Activity (PC-3 [37]): Active

Structure (SMILES): COc1cc(O)c(C(=O)/C=C/c2ccccc2SC)c(OC)c1
- viability at 50 µM (Huh-7 [1]): 38%
- viability at 50 µM (Caco-2 [2]): 23%
- viability at 50 µM (MDA-MB-231 [3]): 39%
- viability at 50 µM (NCI-H727 [4]): 8%
- IC50 (Huh-7 [5]): 16.6 µM
- IC50 (Caco-2 [6]): 9.6 µM
- IC50 (MDA-MB-231 [7]): > 20 µM
- IC50 (HCT-116 [8]): 10 µM
- IC50 (PC-3 [9]): 8.7 µM
- IC50 (NCI-H727 [10]): 9 µM
- IC50 (HaCaT [11]): 10.5 µM
- Ratio IC50 [12]: 2.2
- Ratio IC50 [13]: 3.8
- Ratio IC50 [14]: 4
- Ratio IC50 [15]: 2.3
- Activity (HCT-116 [16]): Active
- Activity (PC-3 [17]): Active
- Activity (MCF7 [19]): Active
- Activity (PC-3 [20]): Active
- Activity_index (Huh-7 [22]): 2.3
- Activity (Huh-7 [23]): 50%
- Activity_index (Caco-2 [24]): 6
- Activity_index (HCT-116 [25]): 0.8
- Activity (HCT-116 [26]): 52%
- Activity (PC-3 [27]): 35%
- Activity_index (NCI-H727 [28]): 0.9
- Activity (NCI-H727 [29]): 43%
- Activity (HaCaT [30]): 51%
- Activity (Huh-7 [31]): 37%
- Activity (Caco-2 [32]): 37%
- Activity_index (NCI-H727 [33]): 0.4
- Activity (NCI-H727 [34]): 12%
- Activity (HaCaT [38]): Active
- Activity (MCF7 [36]): Active
- Activity (PC-3 [37]): Active
